Data published in patent publication US11248030B2, “Dual IL-2R and IL-7R binding compounds” (MEDIKINE, INC., priority 2019, dated 2022).

Experiments:
IL-7Rα subunit = target: T1, IL-7Rα subunit (Homo sapiens, UniProt P16871); assay: competitive binding assay, specific binding site on the IL-7Rα subunit; conditions: specific binding site distinct from that of IL-7
T1 construct: human IL-7Rα (CD127 protein, Fc Tag) (21-236); Fc; purchased ACRObiosystems, Inc. ILB-H5258

IL-2Rβ subunit = target: T2, IL-2Rβ subunit (Homo sapiens, UniProt P14784); assay: competitive binding assay, specific binding site on the IL-2Rβ subunit
T2 construct: human IL-2Rβ (CD122 protein, Fc Tag) (27-239); Fc; purchased ACRObiosystems, Inc. ILB-H5253
T2 sequence (P14784 27-239): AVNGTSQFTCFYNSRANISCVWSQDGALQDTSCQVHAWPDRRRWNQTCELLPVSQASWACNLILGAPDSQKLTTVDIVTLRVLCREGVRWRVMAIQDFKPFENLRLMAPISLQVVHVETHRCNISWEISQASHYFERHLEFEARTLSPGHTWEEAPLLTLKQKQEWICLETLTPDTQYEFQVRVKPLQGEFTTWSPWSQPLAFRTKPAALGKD

T1 sequence (P16871 21-236): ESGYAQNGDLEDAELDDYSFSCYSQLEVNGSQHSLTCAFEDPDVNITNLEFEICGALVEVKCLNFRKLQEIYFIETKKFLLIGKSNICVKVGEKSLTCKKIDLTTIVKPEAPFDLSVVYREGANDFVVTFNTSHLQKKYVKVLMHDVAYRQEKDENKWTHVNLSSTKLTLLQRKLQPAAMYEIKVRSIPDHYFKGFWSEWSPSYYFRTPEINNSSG

SMILES | IC50 (IL-7Rα subunit) [µM] | IC50 (IL-2Rβ subunit) [µM]
CC[C@H](C)[C@H](NC(=O)[C@H](CCC(N)=O)NC(=O)[C@@H]1CSSC[C@H](NC(=O)[C@H](CCSC)NC(=O)[C@@H](N)CC(N)=O)C(=O)N[C@@H](CC(C)C)C(=O)N[C@@H](C(C)C)C(=O)NCC(=O)N[C@@H](CC(=O)O)C(=O)N[C@@H](Cc2ccc(O)cc2)C(=O)N[C@@H](Cc2c[nH]c3ccccc23)C(=O)N2CCC[C@H]2C(=O)N[C@@H](CO)C(=O)N1)C(=O)O [SEQ ID NO: 180, N M C L V G D Y W P S C Q I] |  | < 10
CSCC[C@H](NC(=O)[C@H](CC(C)C)NC(=O)[C@H](CC(C)C)NC(=O)[C@H](CC(=O)O)NC(=O)CNC(=O)[C@@H](NC(=O)[C@H](CC(=O)O)NC(=O)CNC(=O)[C@H](Cc1c[nH]c2ccccc12)NC(=O)[C@@H](N)CCCNC(=N)N)C(C)C)C(=O)N1CCC[C@H]1C(=O)N[C@@H](CC(C)C)C(=O)O [SEQ ID NO: 209, R W G D V G D L L M P L] |  | < 10
CC[C@H](C)[C@@H]1NC(=O)[C@H](CCC(=O)O)NC(=O)[C@H](C)NC(=O)[C@@H](NC(=O)[C@H](Cc2ccc(O)cc2)NC(=O)[C@@H](N)C(C)C)CSSC[C@@H](C(=O)N[C@@H](CCCNC(=N)N)C(=O)N[C@@H](CCC(N)=O)C(=O)O)NC(=O)[C@H](C(C)C)NC(=O)[C@H](CCCNC(=N)N)NC(=O)[C@H](Cc2ccc(O)cc2)NC(=O)[C@H](CCC(=O)O)NC(=O)CNC1=O [SEQ ID NO: 2043, V Y C A E I G E Y R V C R Q] | < 10 | 
CC[C@H](C)[C@@H]1NC(=O)[C@H](CCCNC(=N)N)NC(=O)[C@@H](NC(=O)[C@H](CC(=O)O)NC(=O)[C@@H](N)Cc2ccc(O)cc2)CSSC[C@@H](C(=O)N[C@@H](CC(=O)O)C(=O)N[C@@H](CC(C)C)C(=O)O)NC(=O)[C@H](CC(C)C)NC(=O)[C@H](CCC(=O)O)NC(=O)CNC(=O)[C@H](C(C)C)NC(=O)[C@H](CCC(N)=O)NC(=O)[C@H](C)NC1=O [SEQ ID NO: 154, Y D C R I A Q V G E L C D L] |  | < 10

Next, values leading:

IC50 (IL-7Rα subunit) [µM] | IC50 (IL-2Rβ subunit) [µM] | SMILES
< 10 |  | CC[C@H](C)[C@@H]1NC(=O)[C@@H](NC(=O)[C@@H](N)CCC(N)=O)CSSC[C@@H](C(=O)N[C@H](C(=O)O)C(C)C)NC(=O)[C@H](CO)NC(=O)[C@H](CC(C)C)NC(=O)[C@H](CC(C)C)NC(=O)[C@H]([C@@H](C)O)NC(=O)[C@H](CCC(=O)O)NC(=O)[C@H]([C@@H](C)CC)NC(=O)[C@H](CC(=O)O)NC(=O)[C@H](Cc2c[nH]c3ccccc23)NC(=O)[C@H](Cc2c[nH]cn2)NC1=O [SEQ ID NO: 2159, Q C I H W D I E T L L S C V]
< 10 |  | CC(C)C[C@@H]1NC(=O)[C@H](CO)NC(=O)CNC(=O)[C@@H]2CCCN2C(=O)[C@H](CC(=O)O)NC(=O)[C@H](CC(C)C)NC(=O)[C@H]([C@@H](C)O)NC(=O)[C@@H](NC(=O)[C@H](Cc2c[nH]c3ccccc23)NC(=O)[C@@H]2CCCN2C(=O)[C@@H](N)C(C)C)CSSC[C@@H](C(=O)N[C@@H](C)C(=O)N[C@@H](Cc2c[nH]c3ccccc23)C(=O)N[C@@H](Cc2ccccc2)C(=O)O)NC(=O)[C@H](CCC(N)=O)NC1=O [SEQ ID NO: 2313, V P W C T L D P G S L Q C A W F]
